Assay results published in patent US20140024662A1, “COMPOUNDS, SCREENS, AND METHODS OF TREATMENT” (Shanghai Institute of Organic Chemistry, priority 2006, published 2014).
Like-named read-outs stand apart in the source and are kept apart here.

System: FADD-deficient Jurkat cells
Test: necroptosis assay: FADD-deficient Jurkat cells treated with TNFα, cell viability
Assay type: cell-based, human
Conditions: for activity in the necroptosis assay, in words / Max Prot: FADD-deficient Jurkat cells treated with TNFα; for Max Prot: max viability obtained in the presence of a compound; call rule not given here
Description: Herein we describe the structure activity analysis of Nec-5 analogs.

[1] = effective concentration for half-maximum response, inhibition of necroptosis in FADD-deficient Jurkat cells treated with TNFα, read-out: EC50
[2] = effective concentration for half-maximum response, inhibition of necroptosis in FADD-deficient Jurkat cells treated with TNFα

COc1ccc(-n2c(SCC#N)nc3sc4c(c3c2=O)CCCC4)cc1 [Compound 1, 3-p-methoxyphenyl-5,6-tetra-methylenothieno-[2,3-d]-pyrimidin-4-one-2-mercaptoethylcyanide]
activity in the necroptosis assay, in words: prevents the death
EC50 (Homo sapiens, Jurkat): 240 nM
Max Prot: 100%

COc1ccc(-n2c(SC)nc3sc4c(c3c2=O)CCCC4)cc1 [Compound 6]
activity in the necroptosis assay, in words: reserves its activity to a significant extent
EC50 [1]: 240 nM
Max Prot: 71%

CCSc1nc2sc3c(c2c(=O)n1-c1ccc(OC)cc1)CCCC3 [Compound 7]
EC50 [2]: inactive

CCCSc1nc2sc3c(c2c(=O)n1-c1ccc(OC)cc1)CCCC3 [Compound 8]
EC50 [2]: inactive

CCCCSc1nc2sc3c(c2c(=O)n1-c1ccc(OC)cc1)CCCC3 [Compound 9]
EC50 [2]: inactive

CCCCCSc1nc2sc3c(c2c(=O)n1-c1ccc(OC)cc1)CCCC3 [Compound 10]
EC50 [2]: inactive

CCCCCCSc1nc2sc3c(c2c(=O)n1-c1ccc(OC)cc1)CCCC3 [Compound 11]
EC50 [2]: inactive

C=CCSc1nc2sc3c(c2c(=O)n1-c1ccc(OC)cc1)CCCC3 [Compound 12]
EC50 [2]: inactive

C#CCSc1nc2sc3c(c2c(=O)n1-c1ccc(OC)cc1)CCCC3 [Compound 13]
activity in the necroptosis assay, in words: exhibited some activity
EC50 [1]: 6080 nM
Max Prot: 80.7%

COc1ccc(-n2c(SCc3ccccc3)nc3sc4c(c3c2=O)CCCC4)cc1 [Compound 14]
activity in the necroptosis assay, in words: completely destroyed the activity
EC50 [2]: inactive

COc1ccc(-n2c(SCc3ccc(C)cc3)nc3sc4c(c3c2=O)CCCC4)cc1 [Compound 15]
EC50 [2]: inactive

COc1ccc(CSc2nc3sc4c(c3c(=O)n2-c2ccc(OC)cc2)CCCC4)cc1 [Compound 16]
EC50 [2]: inactive

COc1ccc(-n2c(SCc3ccc([N+](=O)[O-])cc3)nc3sc4c(c3c2=O)CCCC4)cc1 [Compound 17]
EC50 [2]: inactive

COc1ccc(-n2c(SCC(C)=O)nc3sc4c(c3c2=O)CCCC4)cc1 [Compound 18]
EC50 [2]: inactive

COC(=O)CSc1nc2sc3c(c2c(=O)n1-c1ccc(OC)cc1)CCCC3 [Compound 19]
activity in the necroptosis assay, in words: completely destroyed the activity
EC50 [2]: inactive

COc1ccc(-n2c(SCC(N)=O)nc3sc4c(c3c2=O)CCCC4)cc1 [Compound 20]
EC50 [2]: inactive

COc1ccc(-n2c(SC(C)=O)nc3sc4c(c3c2=O)CCCC4)cc1 [Compound 21]
EC50 [2]: inactive

CCCC(=O)Sc1nc2sc3c(c2c(=O)n1-c1ccc(OC)cc1)CCCC3 [Compound 22]
EC50 [2]: inactive

COc1ccc(-n2c(SC(=O)c3ccccc3)nc3sc4c(c3c2=O)CCCC4)cc1 [Compound 23]
EC50 [2]: inactive

COc1ccc(-n2c(SCCC#N)nc3sc4c(c3c2=O)CCCC4)cc1 [Compound 24]
activity in the necroptosis assay, in words: retained some activity
EC50 [1]: 5280 nM
Max Prot: 70%

COc1ccc(-n2c(SCCl)nc3sc4c(c3c2=O)CCCC4)cc1 [Compound 25]
activity in the necroptosis assay, in words: exhibited some activity
EC50 [1]: 2220 nM
Max Prot: 85%

COc1ccc(-n2c(SC[N+](=O)[O-])nc3sc4c(c3c2=O)CCCC4)cc1 [Compound 26]
activity in the necroptosis assay, in words: completely destroyed the activity
EC50 [2]: inactive

COc1ccc(-n2c(SCC(=O)Nc3ccccc3C(F)(F)F)nc3sc4c(c3c2=O)CCCC4)cc1 [Compound 27]
EC50 [2]: inactive

COc1ccc(-n2c(SCC(C)O)nc3sc4c(c3c2=O)CCCC4)cc1 (stereo not shown) [Compound 28]
EC50 [2]: inactive

COc1ccc(-n2c(SCC(=O)O)nc3sc4c(c3c2=O)CCCC4)cc1 [Compound 29]
EC50 [2]: inactive

COc1ccc(-n2c([S+](C)[O-])nc3sc4c(c3c2=O)CCCC4)cc1 (stereo not shown) [Compound 30]
activity in the necroptosis assay, in words: complete loss of activity
EC50 [2]: inactive
